In patent US20140227289A1, “COMPOUNDS AND METHODS FOR TREATING INSULIN RESISTANCE SYNDROME” (priority 2011, published 2014):

Key:
[1] = biological target: human Foxo1 (human) (UniProt Q12778); assay: cell-based or functional assay
[2] = system: MCF-7 cells; assay: Expression of endogenous Foxo1 targets in serum starved, PI3K inhibited MCF-7 cells; assay type: cell-based, human; conditions: serum starved+LY+PERK inhibition vs serum starved+LY
Method: To test the effects of PERK inhibition on endogenous Foxo1 targets, the cells were serum starved to remove growth factors and treated with the PI3K inhibitor LY294002 (50 μM) to further reduce AKT activity (“serum starved+LY”) for 4 hours. This treatment can be viewed as a model for extreme insulin resistance, in that it removes the capacity of the cell to respond insulin signaling by activating AKT. Control cells were grown in DMEM supplemented with 10% FBS (“control with serum”). The endogenous human FOXO targets are BIM gene (a pro-apoptotic member of the BCL-2 protein family), Cyclin G2 gene (encoding a cyclin that blocks cell cycle entry), insulin receptor substrate 2 gene (IRS-2; encoding a cytoplasmic signaling molecule that mediates effects of insulin), p27KIP1 gene (encoding a cell cycle regulatory protein), pyruvate dehydrogenase lipoamide kinase isozyme 4 gene (PDK4; encoding a protein that inhibits the pyruvate dehydrogenase complex), phosphoenolpyruvate carboxykinase 2 (PCK2; encoding a mitochondrial enzyme), p21 gene (encoding a cyclin-dependent kinase inhibitor) and insulin receptor gene (INSR). The rp132 gene (a ribosomal protein gene) and the mActin gene (encoding a muscle-specific type actin) are not FOXO targets and were used as controls. […]

[3] = system: HEPG2 hepatocyte cells; assay: Expression of FOXO targets in serum starved, PI3K inhibited HEPG2 hepatocyte cells; assay type: cell-based, human; conditions: serum starved+LY+PERK inhibition vs serum starved+LY
Method: To test the effects of PERK inhibition on endogenous Foxo1 targets, the cells were serum starved to remove growth factors and treated with the PI3K inhibitor LY294002 (50 μM) to further reduce AKT activity (“serum starved+LY”) for 4 hours. This treatment can be viewed as a model for extreme insulin resistance, in that it removes the capacity of the cell to respond insulin signaling by activating AKT. Control cells were grown in DMEM supplemented with 10% FBS (“control with serum”). The endogenous human FOXO targets are BIM gene (a pro-apoptotic member of the BCL-2 protein family), Cyclin G2 gene (encoding a cyclin that blocks cell cycle entry), insulin receptor substrate 2 gene (IRS-2; encoding a cytoplasmic signaling molecule that mediates effects of insulin), p27KIP1 gene (encoding a cell cycle regulatory protein), pyruvate dehydrogenase lipoamide kinase isozyme 4 gene (PDK4; encoding a protein that inhibits the pyruvate dehydrogenase complex), phosphoenolpyruvate carboxykinase 2 (PCK2; encoding a mitochondrial enzyme), p21 gene (encoding a cyclin-dependent kinase inhibitor) and insulin receptor gene (INSR). The rp132 gene (a ribosomal protein gene) and the mActin gene (encoding a muscle-specific type actin) are not FOXO targets and were used as controls. […] Example 11A was repeated with HEPG2 hepatocyte cells instead.

[4] = system: human Foxo1; assay: Foxo1 luciferase reporter assay in human H1299 cells; assay type: cell-based; conditions: 1 μM
Method: Human H1299 cells were transfected to express human Foxo1 (“FOXO1”) and co-transfected to express PERK (“FOXO1+PERK”). The transfected H1299 cells were treated with 1 μM PERK kinase inhibitor (“FOXO1+inhibitor” and “FOXO1+PERK+inhibitor”). The PERK kinase inhibitor has the chemical formula: 5-Bromo-N4-2-pyridinyl-N2-[3-(1,2,3,6-tetrahydro-4-pyridinyl)-1H-indol-5-yl]-2,4-pyrimidinediamine. The activity of the Foxo1 luciferase reporter gene was then measured in terms of normalized IRS-luciferase levels.

[5] = system: HEPG2 liver cells; assay: Foxo1 target gene expression in palmitate treated (insulin resistant) HEPG2 liver cells; assay type: cell-based, human; conditions: palmitate treated cells further treated with PERK kinase inhibitor
Method: HEPG2 liver cells were treated with 0.75 mM of palmitate, a saturated fatty acid, for 17 hours to induce insulin resistance, and the effects of PERK inhibition were assessed by monitoring Foxo1 target gene expression. The Foxo1 target genes are pyruvate dehydrogenase lipoamide kinase isozyme 4 gene (PDK4; encoding a protein that inhibits the pyruvate dehydrogenase complex) and phosphoenolpyruvate carboxykinase 1 (PCK1; encoding […]).
The results are shown in FIG. 12A, where the data was normalized to Kinesin mRNA levels and to the level of the rp132 control mRNAs.
The palmitate treated cells were further treated by inhibiting PERK kinase inhibitor 5-Bromo-N4-2-pyridinyl-N2-[3-(1,2,3,6-tetrahydro-4-pyridinyl)-1H-indol-5-yl]-2,4-pyrimidinediamine.
The results are shown in FIG. 12B, where the data was normalized to Kinesin mRNA levels and to the level of the rp132 control mRNAs. It can be seen that PERK inhibition decreased the expression of the Foxo1 targets, PDK4 and PCK1.

[6] = system: human AGS cells; assay: Quantitative RT-PCR of FOXO target mRNAs in human AGS cells under ER stress; assay type: cell-based
Method: (§1) The expression of certain mRNAs was measured by quantitative reverse transcription polymerase chain reaction (RT-PCR). In this example, the mRNA was extracted and purified using RNeasy Mini Kit (Qiagen, Netherlands) with DNase to eliminate genomic DNA contamination. Reverse transcription to synthesize the first strand utilized oligo-dT primers. The mRNAs measured are known FOXO targets: […] (CHOP), Bim (anti- or pro-apoptotic regulators), Growth Arrest and DNA Damage gene (GADD45) and PERK. Bip2, which is not a FOXO target, was also measured as a control. Results were normalized to Kinesin mRNA.
Dimethyl sulfoxide (DMSO)-treated human AGS cells were used as a control, denoted as “ctrl”. The human AGS cells were grown in Roswell Park Memorial Institute (RPMI) media supplemented with 10% FBS, and treated with 10 μg/ml tunicamycin dissolved in DMSO at 1 mg/ml for 4 hours to induce ER stress. The tunicamycin treated cells are denoted as “TM”.
Quantitative RT-PCR was performed to show the relative level of the indicated human mRNA targets. The results are shown in FIG. 5A where normalized levels of mRNA transcripts were measured for the “TM” cells compared to the “ctrl” cells. […] It can be concluded that ER stress induces the expression of Bip2, CHOP, Bim and GADD45.
(§2) The tunicamycin treated (“TM”) cells were further treated with siRNA treatment to deplete PERK from human AGS cells. The siRNA sequence used was 5′-[…]-3′ (SEQ ID NO: 1). The siRNA was transfected into cells using HiPerFect reagent (Qiagen, Netherlands) for 3 days before tunicamycin treatment. The PERK-depleted cells are denoted as “PERK RNAi+TM”.
(§3) Quantitative RT-PCR was performed to show the relative level of the indicated human mRNA targets. The results are shown in FIG. 5B where normalized levels of the target mRNA transcripts were measured for the “TM” cells compared with the “PERK RNAi+TM” cells. The levels of these target mRNAs in PERK-depleted (“PERK RNAi+TM”) cells were normalized to the levels of tunicamycin-treated (“TM”) control cells.

[7] = system: PERK; assay: siRNA depletion of PERK in human AGS cells, quantitative RT-PCR; assay type: cell-based; conditions: siRNA transfected 3 days before tunicamycin treatment
Method: as §1, §2, §3

[8] = system: FOXO-GFP; assay: FOXO-GFP subcellular localization assay in Drosophila S2 cells; assay type: cell-based; conditions: 10 μg/ml of insulin for 30 min, serum free medium
Method: A FOXO-green fluorescent (GFP) fusion protein was expressed in Drosophila S2 cells by transient transfection. The Drosophila cells were grown in serum free medium and deprived of insulin. The transfected cells were treated with 10 μg/ml of insulin for 30 min and the subcellular localization of FOXO-GFP was scored by obtaining images of the FOXO-GFP expressing cells. The insulin treated cells were named sample (b). A control sample (a) was obtained by having no insulin treatment to the transfected cells. In sample (c), ER stress was induced by RNA interference (RNAi) to disrupt endoplasmic-reticulum-associated-protein degradation (ERAD) machinery. The disruption of ERAD machinery was done by treatment of dsRNA to deplete HMG-CoA reductase degradation protein 3 (Hrd3), thereby inducing ER stress. Thereafter, the cells were treated with insulin 4 days after the dsRNA treatment. In sample (d), ER stress was induced by dsRNA treatment to deplete Hrd3. PERK protein was also depleted using dsRNA treatment. Thereafter, the cells were treated with insulin 4 days after the dsRNA treatment.
The results are shown in FIG. 2, where N means predominantly nuclear, C means predominantly cytoplasmic and CN means both nuclear and cytoplasmic. […]

[9] = PERK RNAi+TM cells compared with TM cells

UniProt Q12778, sequence (Q12778 whole entry): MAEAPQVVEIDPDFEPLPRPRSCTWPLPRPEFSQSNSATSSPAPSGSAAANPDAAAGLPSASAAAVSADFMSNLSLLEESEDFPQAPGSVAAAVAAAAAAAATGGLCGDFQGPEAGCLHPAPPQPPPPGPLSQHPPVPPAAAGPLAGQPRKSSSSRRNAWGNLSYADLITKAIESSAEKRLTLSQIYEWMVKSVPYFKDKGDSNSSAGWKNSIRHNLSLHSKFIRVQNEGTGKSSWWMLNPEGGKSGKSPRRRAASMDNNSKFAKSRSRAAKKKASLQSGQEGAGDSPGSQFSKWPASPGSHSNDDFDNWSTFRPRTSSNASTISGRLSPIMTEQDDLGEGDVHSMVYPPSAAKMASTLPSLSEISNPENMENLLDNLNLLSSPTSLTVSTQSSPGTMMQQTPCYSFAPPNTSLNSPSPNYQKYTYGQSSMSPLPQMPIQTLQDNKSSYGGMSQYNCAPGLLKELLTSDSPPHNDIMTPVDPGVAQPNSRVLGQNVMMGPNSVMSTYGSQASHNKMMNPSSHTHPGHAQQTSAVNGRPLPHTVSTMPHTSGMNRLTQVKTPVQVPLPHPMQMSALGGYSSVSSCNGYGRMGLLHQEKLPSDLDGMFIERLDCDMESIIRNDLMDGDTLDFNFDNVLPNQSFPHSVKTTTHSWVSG

human protein kinase RNA-like endoplasmic reticulum kinase (PERK) protein (from UniProt Q9NZJ5 30-1116) (enzyme)
normalized luciferase levels of the human Foxo1 luciferase reporter [1]: 2 fold

Brc1cnc(Nc2ccc3[nH]cc(C4=CCNCC4)c3c2)nc1Nc1ccccn1 [PERK kinase inhibitor, 5-Bromo-N4-2-pyridinyl-N2-[3-(1,2,3,6-tetrahydro-4-pyridinyl)-1H-indol-5-yl]-2,4-pyrimidinediamine]
target genes expression (BIM, Cyclin G2, IRS-2, p27KIP1, PDK4) [2]: reducing the target genes expression
expression of rp132 and mActin (not FOXO target genes) [3]: did not reduce
target genes expression (p27, PDK, Cyclin G, PCK2, p21, INSR) [3]: reduced the target genes expression
level of Foxo1 activity with co-expressed PERK (normalized IRS-luciferase levels) ([4]; FOXO1+PERK vs FOXO1+PERK+inhibitor): reduced the level of Foxo1 activity
activity of Foxo1 alone (normalized IRS-luciferase levels) ([4]; FOXO1 vs FOXO1+inhibitor): did not affect
expression of the Foxo1 targets PDK4 and PCK1 [5]: decreased
levels of rp123 and mActin (not Foxo1 targets) [5]: not substantially altered

tunicamycin [TM, reference compound]
levels of Bip2, CHOP, Bim and GADD45 mRNA transcripts compared to ctrl cells ([6]; 10 μg/ml tunicamycin for 4 hours, normalized to Kinesin mRNA): significantly higher

5′-CAAACUGUAUAACGGUUUATT-3′ [PERK RNAi]
decrease of PERK levels compared to TM cells [7]: more than 80%
degree of induction of Foxo1 targets CHOP, Bim and GADD45 [6, 9]: reducing the degree of induction
levels of Bip2 transcripts (not a FOXO target) [6, 9]: comparable

insulin
location of FOXO-GFP both nuclear and cytoplasmic [8]: about 30 % of cells
location of FOXO-GFP cytoplasmic [8]: about 70 % of cells
